Patent US5891742A, “Affinity selection of ligands by mass spectroscopy” (Chiron Corporation, priority 1995, dated 1999)

Assays:
[1] = target: uPAR (Homo sapiens, UniProt Q03405); conditions: individual N-substituted glycine peptoids
Experimental: Human urokinase plasminogen activator receptor (UPAR) was expressed in a soluble, truncated form as described by Rosenberg et al., W094/28145, incorporated herein by reference. […] The ligand uPA1-48 was prepared as described in Rosenberg, supra.

[2] = target: sUPAR (Homo sapiens, UniProt Q03405); conditions: mixture 1 μM per compound, sUPAR 1 μM
Chain of sUPAR (Q03405 23-305): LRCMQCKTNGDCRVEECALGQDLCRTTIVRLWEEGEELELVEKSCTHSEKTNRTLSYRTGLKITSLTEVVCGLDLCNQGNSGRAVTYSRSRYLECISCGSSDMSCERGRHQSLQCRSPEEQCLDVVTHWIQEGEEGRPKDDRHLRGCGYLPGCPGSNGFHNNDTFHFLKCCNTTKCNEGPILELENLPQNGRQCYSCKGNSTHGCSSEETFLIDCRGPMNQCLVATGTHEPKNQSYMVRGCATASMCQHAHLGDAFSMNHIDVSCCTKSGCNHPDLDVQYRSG
Experimental: The mixture (1 μM per compound) was contacted with sUPAR (1 μM) in the presence and absence of uPA1-48(2 μM), incubated for 30 minutes, and applied to a SEC HPLC column (Pharmacia HSIO/IO). The compound-target complex eluting in the excluded volume of the column was collected and analyzed on an ES MS (PE-Sciex).

Chain of uPAR (Q03405 23-305): as above

1,4-benzodioxane
activity (affinity for uPAR) [1]: insignificant activity

diphenyl
selection as compound-target complex, detected by ES MS ([2]; absence of uPA1-48, 30 minutes, SEC HPLC excluded volume): selected
specificity of selection, by competition with ligand uPA1-48 ([2]; presence of uPA1-48 (2 μM)): specificity was confirmed by competition
